Laboratory results from patent US4835185A, “Immunomodulator for improving commercial performance of domestic animals” (Iowa State University Research Foundation, Inc., priority 1987, dated 1989).

Tests used:
[1] = design: species or system pigs; details: pig, in vivo
Text: In experiment 1, sixteen female pigs weighing 20-30 kg were used. Seven days before study, catheters were surgically placed in the right atria for blood sampling. Animals were housed in individual cages during the recovery period and had free access to water. Preceding the experiment, animals were fed twice daily a basal diet (2% of body weight per feeding). The basal diet consisted of a corn-soybean mix, adequate in all minerals and vitamins and containing approximately 14% crude protein. Test meals were formulated by additions to a basal diet. Five animals received the basal diet (control); five animals received the leucine meal, which had 2% leucine added to the basal diet; and six animals received the KIC diet, which had 2% KIC (sodium salt equivalent to 1.7% free acid) added to the basel diet. Studies were begun between 0800 and 0900 h after a 24-hr fast. Basal blood samples were taken at -20, -10 and -5 min. Animals were then offered 100 g of their respective test meal (time 0). Pigs were included in the study only if they consumed the entire meal in the first 20 min. Blood was sampled every 30 min from 120 to 240 min. Plasma was separated, Trasylol (FBA Pharmaceuticals, New York, NY) added (50 ul/ml), and plasma stored at -70 C. until analyzed.
Cortisol was measured by coated tube kits (Gammacoat, Travenol-Genetech Diagnostics, Cambridge, MA). Leucine and KIC were measured by high pressure liquid chromatography. Crystalline leucine was obtained from Sigma Chemical (St. Louis, MO) and KIC-sodium was obtained from SOBAC (Paris, France). Statistical analysis of the individual pig responses was conducted on mean plasma concentrations before the meal (-20 to 0 min) and after the meal (120 to 240 min). When the overall treatment F-value was significant, differences between individual treatments were determined using the pooled SEM and a T-test.

lymphocytes = assay: Study of Immune Function: lymphocyte blastogenesis, cattle (experiment 3); format: cell-based, castrated male cattle
[2] = test system: cholesterol in lean tissue and plasma; assay: Lamb trials: cholesterol in lean tissue and plasma; format: in vivo, lambs (sheep)
Text: The lambs used in Trial 1 consisted of medium-frame crossbred wethers and ewes weighing 26 to 31 kg. The lambs used in Trial 2 consisted of medium-framced crossbred rams weighing 18 to 25 kg. Each animal was raised as a single. The lambs were housed in a temperature controlled room in individual pens with nipple waterers. When received, the lamps were vaccinated for enterotoxemia. They were allowed to adjust to the pens and the environment for 10 days. One day before the trial began, the lambs were sheared and placed on their respective dietary treatments. The lamps were allotted blocking by weight and sex into two dietary treatment groups. Growth and feed consumption were measured bi-weekly. All lamb weights were taken after a 12 to 16 hour fast. The animals were slaughtered at 50 kg in the Iowa State University Meat laboratory facilities at Ames, Iowa. At slaughter, the lamb's internal organs and wool were weighed and sampled, loin eye area and back fat measured, and carcasses separated into fat, lean, and bone.
The SMB (soybean meal-containing) and the CGM (corn-gluten-containing) diets (compositions given in Table A) were fed twice per day in quantities ensuring that feed was before the lambs at all times. The diets were calculated to be equivalent to each other with respect to metabolizable protein, ether extract, fiber, and minerals with the exception of calcium and phosphorus. […] The CGM diet was calculated to contain slightly more energy (TDN 81.7 vs. 79.0, NEm 1.88 v. 1.86, Neg. 1.23 vs. 1.22). […] The soybean meal ingredient contained about 3.5 wt % leucine, while the corn gluten meal ingredient contained about 15 wt % leucine. The CGM diet was therefore higher in leucine than the SBM diet, containing an estimated 16 wt % leucine as compared with an estimated 8 wt % leucine based on total crude protein in the diet.
^(8) Amount of cholesterol in lean tissue (ng/mg) and plasma (ng/ml).
^(1)- (8) See Table B, except cholesterol data is for lean tissue

Plasma Cortisol = assay: Feedlot steers: plasma cortisol; format: in vivo, steers (cattle); details: 150 days
Text: Seventy-two medium-frame steers, with an average weight of 578 lbs., were allotted to 12 pens of 6 animals each. A common basal diet was fed ad libitum to all cattle. This consisted of 48.9% cracked corn, 24.4% ground corn cobs, 17.8% expeller Soybean meal, 7.0% molasses (liquid), 1.3% limestone, 0.25% dicalcium phosphate, 2% salt, 0.02% trace mineral premix, and 0.1% vitamin A premix for the first 58 days of the experiment, and was changed to 54.3% cracked corn and 12.8% expeller soybean meal for the remaining 103 days of the experiment. Three pens were assigned to each treatment. The treatments consisted of four levels of Ca-KIC in a pelleted supplement: 0%, 0.02%, 0.07%, and 0.20% of the basal diet (0.05% control pellets, 0.04% KIC pellets, 0.14% KIC pellets, and 0.40% KIC pellets). The pellets were preweighted and top-dressed on the basal diet twice daily. After 58 days, the cattle on the 0.20% KIC were removed from the experiment. The cattle were not implanted with a growth promotant nor were ionophores included in the diet. […] Loin eye area and fat thickness over the loin were measured on each carcass. […]
KIC was obtained from SOBAC, Paris, France. Zein was purchased from Freeman Industries, Tuckahoe, N.Y. Each experiment was statistically analyzed by analysis of variance with three pens per treatment. […]

CC(C)CC(=O)C(=O)O [KIC, alpha-ketoisocaproate]
Plasma KIC, Change [1]: 56 µM | Plasma leucine, Change [1]: 182 µM | plasma leucine concentration [1]: doubling | Plasma KIC, Post ([1]; 240 min): 102 µM | Plasma leucine, Post ([1]; 240 min): 312 µM | BKG: background blastogenesis (lymphocytes; Exp. 3, oral coated 0.02% KIC (control 1410)): 1550 Counts/min per 2 × 10^5 cells | PWM: pokeweed mitogen-stimulated blastogenesis (lymphocytes; Exp. 3, oral coated 0.02% KIC (control 23100)): 27100 Counts/min per 2 × 10^5 cells | PHA: phytohemagglutinin-stimulated blastogenesis (lymphocytes; Exp. 3, oral coated 0.02% KIC (control 40500)): 43200 Counts/min per 2 × 10^5 cells | ConA: concanavalin A-stimulated blastogenesis (lymphocytes; Exp. 3, oral coated 0.02% KIC (control 40900)): 48800 Counts/min per 2 × 10^5 cells | BKG: background blastogenesis (lymphocytes; Exp. 3, oral coated 0.07% KIC (control 1410)): 2080 Counts/min per 2 × 10^5 cells | PWM: pokeweed mitogen-stimulated blastogenesis (lymphocytes; Exp. 3, oral coated 0.07% KIC (control 23100)): 38000 Counts/min per 2 × 10^5 cells | PHA: phytohemagglutinin-stimulated blastogenesis (lymphocytes; Exp. 3, oral coated 0.07% KIC (control 40500)): 74300 Counts/min per 2 × 10^5 cells | ConA: concanavalin A-stimulated blastogenesis (lymphocytes; Exp. 3, oral coated 0.07% KIC (control 40900)): 75400 Counts/min per 2 × 10^5 cells | BKG: background blastogenesis (lymphocytes; Exp. 3, oral coated 0.20% KIC (control 1410)): 1690 Counts/min per 2 × 10^5 cells | PWM: pokeweed mitogen-stimulated blastogenesis (lymphocytes; Exp. 3, oral coated 0.20% KIC (control 23100)): 30500 Counts/min per 2 × 10^5 cells | PHA: phytohemagglutinin-stimulated blastogenesis (lymphocytes; Exp. 3, oral coated 0.20% KIC (control 40500)): 56900 Counts/min per 2 × 10^5 cells | ConA: concanavalin A-stimulated blastogenesis (lymphocytes; Exp. 3, oral coated 0.20% KIC (control 40900)): 54400 Counts/min per 2 × 10^5 cells | CHOLESTEROL PLASMA: amount of cholesterol in plasma ([2]; Trial 1, CGM diet, 1% KIC (0%: 33)): 32 ng/mL | CHOLESTEROL TISSUE: amount of cholesterol in lean tissue ([2]; Trial 1, CGM diet, 1% KIC (0%: 40)): 32 ng/mg | CHOLESTEROL PLASMA: amount of cholesterol in plasma ([2]; Trial 1, SBM diet, 1% KIC (0%: 32)): 23 ng/mL | CHOLESTEROL TISSUE: amount of cholesterol in lean tissue ([2]; Trial 1, SBM diet, 1% KIC (0%: 80)): 44 ng/mg | CHOLESTEROL: lean tissue ([2]; Trial 2, CGM diet, 1% KIC (0%: 92.2), * p<.05): 81.2 ng/mg | CHOLESTEROL: lean tissue ([2]; Trial 2, SBM diet, 1% KIC (0%: 75.2)): 83.2 ng/mg | Plasma Cortisol (Plasma Cortisol; .02% dietary KIC (0%: 4.08)): 3.74 µg/dL | Plasma Cortisol (Plasma Cortisol; .07% dietary KIC (0%: 4.08)): 3.2 µg/dL
